In US9598396B2, “Tetrahydrophenanthridinones and tetrahydrocyclopentaquinolinones as PARP and tubulin polymerization inhibitors” (Janssen Pharmaceutica NV, priority 2008, dated 2017):

Key:
Human PARP-1 enzyme = Human PARP-1 enzyme (Homo sapiens (Human), UniProt P09874); test: In vitro Scintillation Proximity Assay (SPA) for PARP-1 inhibitory activity; format: biochemical; conditions: nicked DNA activated PARP-1, [3H]-NAD+, biotinylated histones
Description: C.1.In Vitro Scintillation Proximity Assay (SPA) for PARP-1 Inhibitory Activity
Compounds of the present invention were tested in an in vitro assay based on SPA technology (proprietary to GE healthcare).
In principle, the assay relies upon the well established SPA technology for the detection of poly(ADP-ribosyl)ation of biotinylated target proteins, i.e histones. This ribosylation is induced using nicked DNA activated PARP-1 enzyme and [^3H]-nicotinamide adenine dinucleotide ([^3H]-NAD^+) as ADP-ribosyl donor.
Histones (type II-A, supplier: Sigma) were biotinylated using the biotinylation kit of Amersham and stored aliquoted at −20° C. A stock solution of 100 mg/ml SPA poly(vinyl toluene) (PVT) beads (supplier: Amersham) was made in PBS. A stock solution of 61.6 nM […] was made by adding [^3H]-NAD^+ (0.1 mCi/ml, supplier: Perkin Elmer) to incubation buffer (50 mM Tris/HCl, pH 8; 0.2 mM DTT; 4 mM MgCl2). A solution of 4 mM NAD^+ (supplier: Sigma) was made. Human PARP-1 enzyme was obtained from Trevigen. Biotinylated histones and PVT-SPA beads were mixed and pre-incubated for 30 minutes at room temperature. PARP-1 enzyme (concentration was lot dependent) was mixed with the nicked DNA and the mixture was pre-incubated for 30 minutes at 4° C. Equal parts of this histones/PVT-SPA beads solution and PARP-1 enzyme/DNA solution were mixed and 75 μl of this mixture together with 1 μl of compound in DMSO and 25 μl of [^3H]-NAD^+was added per well into a 96-well microtiterplate. The final concentrations in the incubation mixture were 2 μg/ml for the biotinylated histones, 2 mg/ml for the PVT-SPA beads, 0.25 μg/ml for the nicked DNA and between 0.1-0.2 μg/ml for the PARP-1 enzyme. After incubation of the mixture for 20 minutes at room temperature, the reaction was terminated by adding 100 μl of 4 mM NAD^+ in water (final concentration 2 mM) and plates were mixed. The beads were sedimented by centrifugation (10 min, 800 rpm) and plates transferred to a TopCountNXT™ (Packard) for scintillation counting, values were expressed as counts per minute (cpm). For each experiment, controls (containing PARP-1 enzyme and DMSO without compound), a blank incubation (containing DMSO but no PARP-1 enzyme, no DNA or compound) and samples (containing PARP-1 enzyme, DNA and compound dissolved in DMSO) were run in parallel. All compounds tested were dissolved and eventually further diluted in DMSO. A dose-response curve was made wherein the compounds were tested at concentrations between 10^−5M and 3×10^−9M. In each test, the blank value was subtracted from both the control and the sample values. The control sample represented maximal PARP-1 enzyme activity. For each sample, the amount of cpm was expressed as a percentage of the mean cpm value of the controls. […] Herein the effects of test compounds are expressed as pIC50 (the negative log value of the IC50-value). As a reference compound, 4-amino-1,8-naphthalimide was included to validate the SPA assay.

tubulin = test: Tubulin polymerization assay; format: biochemical; conditions: inhibition of polymerization at 20 μM and 5 μM
Description: Example C.5 Polymerization Assay
The tubulin polymerization assay is an adaptation of an assay originally described by Bonne, D. et al. (J. Biol. Chem., 1985, 260:2819-25). The assay kit was purchased from Cytoskeleton, Inc. (catalogue number BK011) and the assay was performed as described by the supplier with the following modifications. The assay was run in a 384-well black Proxiplate (Perkin Elmer) and volumes were adapted accordingly. The reactions were carried out in a final volume of 10 μl. Compounds were added to 25 μl of the reaction mix in 96-well PP plates (Corning) on ice and 10 μl of this mixture was dispensed into duplicates of the 384-well Proxiplates pre-warmed to 37° C. in a Fluoroskan Ascent plate reader (Thermo Scientific). Fluorescence measurements were taken every minute for one hour. The maximum slope of each well was determined (linear regression through 4 consecutive points) and polymerization was calculated as a percentage of polymerization observed in the absence of compound.

[1] = system: Human colon carcinoma HCT116 cells; test: Detection of antiproliferative activity (Alamar Blue assay); format: cell-based; conditions: HCT-116, 96 h, 4-day incubation, read-out: Cellular assay HCT116 pIC50 (converted)
Description: Example C.4 Detection of Antiproliferative Activity
Human colon carcinoma HCT116 cells obtained from the ATCC were cultured in McCoy's 5A medium supplemented with 2 mM L-Glutamine, 50 μg/ml gentamicin and 10% heat inactivated fetal calf serum.
Reagents used in the Alamar Blue Assay
Resazurin was purchased from Aldrich (Prod. No. 199303). Potassium ferrocyanide, potassium ferricyanide, KH2PO4 and K2HPO4 were purchased from Sigma (Prod. Nos. P9387, P8131, P5655 and P8281, respectively).
Potassium Phosphate Buffer 0.1 M (PPB) was made as follows: 2.72 gram KH2PO4 and 13.86 gram K2HPO4 were dissolved in 500 ml milli-Q H2O, the pH was adjusted to pH 7.4 and the volume was brought to 1 liter with milli-Q H2O; the buffer was filter sterilised and stored at room temperature. Resazurin stock solution (PPB-A) was prepared fresh by dissolving 45 mg resazurin in 15 ml PBS. 30 mM potassium ferricyanide (PPB-B) was prepared by dissolving 0.987 gram potassium ferricyanide in 100 ml PPB. 30 mM potassium ferrocyanide (PPB-C) was prepared by dissolving 1.266 gram potassium ferrocyanide in 100 ml PPB.
Mixture of PPB-A, PPB-B and PPB-C was prepared by mixing equal volumes of the respective solutions. Resazurin work solution (herein termed “Alamar Blue” solution) was prepared by diluting said mixture 20× (vol/vol) in PPB and filter sterilising; the Alamar Blue solution could be kept at 4° C. for a maximum of 2 weeks.
Procedure of the Alamar Blue Assay
For experiments in 384 wells plates the cells were seeded at a density of 4.5×10^3 cells/ml in Falcon 384-well culture plates (Life Technologies, Merelbeke, Belgium), black with clear bottom, in 45 μl culture medium. Cells were allowed to adhere to plastic for 24 hours. The tested compound was pre-diluted (1/50 in culture medium) and 5 μl pre-diluted compound was added to the wells. Following 4-day incubation, 10 μl of the Alamar Blue solution was added to each well and the cells were further incubated for 4 hours (HCT116) or 24 hours (PC-3) at 37° C. The fluorescence intensity was measured for each well on a Fluorescence plate reader (Fluorskan, Labsystems, 540 nm excitation and 590 nm emission)
The antiproliferative activity was calculated as percentage of remaining viable cells in treated versus control (untreated cells) conditions. Within an experiment, the result for each experimental condition is the mean of 3 replicate wells. When appropriate, the experiments were repeated to establish full concentration-response curves. […] Herein the effects of tested compounds are expressed as pIC50 (the negative log value of the IC50 value) (see Table 3).

Human PARP-1 enzyme, sequence (P09874 whole entry): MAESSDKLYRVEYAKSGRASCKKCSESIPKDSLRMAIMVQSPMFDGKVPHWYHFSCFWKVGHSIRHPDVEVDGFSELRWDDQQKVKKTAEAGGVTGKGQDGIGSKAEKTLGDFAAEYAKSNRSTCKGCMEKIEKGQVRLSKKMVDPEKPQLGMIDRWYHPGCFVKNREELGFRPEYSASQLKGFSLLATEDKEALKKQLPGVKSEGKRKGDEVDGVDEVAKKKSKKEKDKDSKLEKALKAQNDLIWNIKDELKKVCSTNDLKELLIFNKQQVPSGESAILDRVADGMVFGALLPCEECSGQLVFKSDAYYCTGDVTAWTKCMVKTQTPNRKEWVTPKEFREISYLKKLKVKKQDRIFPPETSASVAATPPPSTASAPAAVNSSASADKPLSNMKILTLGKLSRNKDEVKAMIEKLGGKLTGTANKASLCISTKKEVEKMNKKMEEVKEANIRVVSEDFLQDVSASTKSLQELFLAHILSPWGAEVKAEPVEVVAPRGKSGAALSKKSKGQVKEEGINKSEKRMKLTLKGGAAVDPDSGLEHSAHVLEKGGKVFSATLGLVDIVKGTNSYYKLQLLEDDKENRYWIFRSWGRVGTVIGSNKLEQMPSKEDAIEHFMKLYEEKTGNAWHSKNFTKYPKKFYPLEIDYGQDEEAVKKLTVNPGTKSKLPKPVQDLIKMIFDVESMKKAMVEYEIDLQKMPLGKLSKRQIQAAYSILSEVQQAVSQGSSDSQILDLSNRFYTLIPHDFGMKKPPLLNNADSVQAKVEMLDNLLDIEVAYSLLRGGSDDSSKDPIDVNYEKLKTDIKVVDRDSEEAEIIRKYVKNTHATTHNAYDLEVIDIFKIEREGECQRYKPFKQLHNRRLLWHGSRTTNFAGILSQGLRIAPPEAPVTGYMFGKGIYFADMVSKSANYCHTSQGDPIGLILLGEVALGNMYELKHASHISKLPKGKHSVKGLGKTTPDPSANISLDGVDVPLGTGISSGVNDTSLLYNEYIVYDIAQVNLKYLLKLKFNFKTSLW

SMILES	in vitro SPA assay PARP-1 pIC50 (Human PARP-1 enzyme)	Assay Tubulin Polymerization score (tubulin)	IC50 [1] [nM]
CC(C#N)(Cc1ccccc1)c1ccc2c3c(c(=O)[nH]c2c1)CCCC3 (stereo not drawn) [Co. No. 1]	7.44	2	355
CC(C#N)(Cc1cccc(C#N)c1)c1ccc2c3c(c(=O)[nH]c2c1)CCCC3 (stereo not drawn) [Co. No. 4]	9.03	2	148
CC(C#N)(Cc1cccc(F)c1)c1ccc2c3c(c(=O)[nH]c2c1)CCCC3 (stereo not drawn) [Co. No. 5]	9.01	2	282
CC(C#N)(Cc1cccc(C#N)n1)c1ccc2c3c(c(=O)[nH]c2c1)CCCC3 (stereo not drawn) [Co. No. 7]	8.38	3 (a compound showing more than 50% inhibition at 5 μM is reported as score 3)	58.9
CC(C#N)(Cc1cccc(Cl)c1)c1ccc2c3c(c(=O)[nH]c2c1)CCCC3 (stereo not drawn) [Co. No. 8]	7.08	2	155
CC(C#N)(CCOc1ccc(C#N)cc1)c1ccc2c3c(c(=O)[nH]c2c1)CCCC3 (stereo not drawn) [Co. No. 17]	7.35	2	204
